This is an account of results in ChEMBL document CHEMBL3351956, “Design and synthesis of novel 1,2,3-triazole-pyrimidine hybrids as potential anticancer agents” (Eur J Med Chem, 2014).

Broadly, the IC50 is the midpoint of a concentration-inhibition curve.

SMILES strings stand for the structures. Bounds are passed on as bounds.

Common to all, as to type: functional, cell-based
Assay [1] can be described thus: Cytotoxicity against human EC109 cells assessed as inhibition of proliferation after 72 hrs by MTT assay. As to conditions: ECa-109, 72 h. (Tetrazolium assays rely on reduction of a dye to a coloured formazan, in cell work by metabolically active cells.)
The next assay relates to MCF7. The assay is described as follows: Cytotoxicity against human MCF7 cells assessed as inhibition of proliferation after 72 hrs by MTT assay. As to conditions: MCF7, 72 h.
Assay [2] is described as follows: Cytotoxicity against mouse B16F10 cells assessed as inhibition of proliferation after 72 hrs by MTT assay. The following applies: B16-F10, 72 h.
Another assay relates to MGC-803. Nature of the assay: Cytotoxicity against human MGC803 cells assessed as inhibition of proliferation after 72 hrs by MTT assay. As to conditions: MGC-803, 72 h.

Take `COc1ccc(Nc2nc(SCc3cn(Cc4ccccc4Cl)nn3)nc(-c3ccc(C(C)C)cc3)c2C#N)cc1`: the IC50 in assay [1] is 3.58 µM; in the assay with MCF7, 10.2 µM; in assay [2], 2.69 µM; in the assay with MGC-803, more than 64 µM.

For the compound `O=c1[nH]cc(F)c(=O)[nH]1` [FLUOROURACIL], the IC50 stood at 10.8 µM in assay [1], 8.93 µM in the assay with MCF7, 0.87 µM in assay [2] and 7.69 µM in the assay with MGC-803.
